In patent US5656662A, “Synthesis of optically pure 4-alkenyl- or 4-alkanyl-2-hydroxytetronic acids” (The Ohio State University Research Foundation, priority 1995, dated 1997):
pEC50: −log10 of the molar value.

Key:
Type in all cases: cell-based
MTS = conditions: human, monocytes; read-out: TC (Tolerated Concentration), MTS
TNFα = TNFα production from purified human monocytes; design: key to EFFECT on TNFα: NE: No effect; INHIB: Inhibition; STIM: Stimulation; IC40: 40% Inhibitory Concentration; EC50: 50% Effective Concentration; TC: Tolerated Concentration; IA: Interferes with Assay
Method: This assay determines the effect of test compounds on the production of TNFα from purified human monocytes. Compounds are tested for their ability to downregulate the production of TNFα in activated monocytes, or upregulate secretion of TNFα in unstimulated monocytes. Test compounds are incubated for sixteen hours with purified human monocytes at four dilutions over a range of three log10 concentrations. Where appropriate, lipopolysaccharide (LPS) is used to stimulate the monocytes.
The level of TNFα in the resultant supernatants is quantitated in a solid phase Enzyme-linked Immunoassay (EIA) performed in a 96 well format. TNFα present in the samples is captured by a specific monoclonal antibody immobilized on the well, and detected with an anti-TNFα polyclonal antibody conjugated to horse radish peroxidase, followed by an appropriate substrate. The levels of TNFα are determined by interpolation of the resultant color change in the substrate from a standard curve. All supernatants are tested in duplicate with controls and standards.
This assay determines the effect of test compounds on the production of TNF from purified human monocytes. Compounds are tested for their ability to downregulate the production of TNFα in activated monocytes, or upregulate secretion of TNFα in unstimulated monocytes. Test compounds are incubated for sixteeen hours with purified human monocytes at four dilutions over a range of three log10 concentrations. Where appropriate, lipopolysaccharide (LPS) is used to stimulate the monocytes.

IL-1ra = IL-1ra secretion from purified human monocytes; design: key: NE: No effect; INHIB: Inhibition; STIM: Stimulation; IC40: 40% Inhibitory Concentration; EC50: 50% Effective Concentration; TC: Tolerated Concentration; IA: Interferes with Assay
Method: This assay determines the effect of test compounds on the secretion of IL-1ra from purified human monocytes. Compounds are tested for their ability to downregulate or upregulate the production of IL-1ra in unstimulated monocytes and in activated monocytes. Test compounds are incubated for sixteen hours with purified human monocytes at four dilutions over a range of three log10 concentrations. Where appropriate, lipopolysaccharide (LPS) is used to stimulate the monocytes.
The level of IL-1ra in the resultant supernatants is quantitated in a solid phase Enzyme-linked Immunoassay (EIA) performed in a 96 well format. IL-1ra present in the samples is captured by a specific monoclonal antibody immobilized on the well, and probed with an anti-IL-1ra polyclonal antibody. A second antibody conjugated to horseradish peroxidase is then added, followed by an appropriate substrate. The levels of IL-1ra are determined by interpolation of the resultant color change in the substrate from a standard curve. […]
This assay determines the effect of test compounds on the secretion of IL-1ra from purified human monocytes. […] The level of IL-1ra in the resultant supernatants is quantitated in a solid phase Enzyme-linked Immunoassay (EIA) performed in a 96 well format. […] The levels of IL-1ra are determined by interpolation of the resultant color change in the substrate from a standard curve. […]

superoxide anion = assay: Superoxide anion release from purified human monocytes; design: key: NE: No effect; INHIB: Inhibition; STIM: Stimulation; IC40: 40% Inhibitory Concentration; EC50: 50% Effective Concentration; TC: Tolerated Concentration; IA: Interferes with Assay; conditions: zymosan
Method: (§1) This assay measures the ability of the test compound to modulate the ability of purified human monocytes to release superoxide anions in response to a zymosan. Compounds are tested at four dilutions over a range of three log10 concentrations. Monocyte-compound cultures are treated with zymosan to stimulate anion production. The amount of superoxide anion produced is determined by the culture's ability to reduce cytochrome C, as measured colorimetrically. The assay is carried out in a 96-well format in triplicate and results are expressed in relation to baseline unstimulated and maximum controls. Appropriate reference controls are run with each assay.
as §1, with “minimum” for “maximum”

[1] = tested on: normal human mononuclear cells; assay: Two Way Mixed Lymphocyte Reaction; design: key: NE: No effect; INHIB: Inhibition; STIM: Stimulation; IC40: 40% Inhibitory Concentration; EC50: 50% Effective Concentration; TC: Tolerated Concentration; IA: Interferes with Assay
Method: The purpose of this procedure is to determine the effect of test compounds on Mixed Lymphocyte Reaction and Mitogen-Induced Proliferation of normal human mononuclear cells.
Procedure for Two Way Mixed Lymphocyte Reaction: PBMNC from two different donors are added to a 96-well cell culture plate. Four dilutions of test compounds, over a range of three log10 in quadruplicate, along with negative and inhibitory controls are then added to the plate and incubated for six days. Cultures are subsequently pulsed, harvested, and counted as above.

CCCCCCCCCCCCCC/C=C\CC[C@@H]1OC(=O)C(O)=C1O [(S)-3,4-Dihydroxy-5-[(Z)-3-octadecenyl]-2(5H)-furanone]
MNTC (MTS): 50 µM | pEC50 (TNFα; Homo sapiens, Monocyte, STIMULATED, STIM): 4.42 | EFFECT on TNFα (TNFα; STIMULATED): STIM | EFFECT on TNFα (TNFα; UNSTIMULATED): NE | EFFECT on IL1ra (IL-1ra; STIMULATED): NE | EFFECT on IL1ra (IL-1ra; UNSTIMULATED): NE | EFFECT on SUPEROXIDE (superoxide anion): IA | EFFECT on MLR [1]: NE
